“And” between values parts separate entries of the source, which are not always exact repeats. Equal entries are not always repeated. Peptide text beside a SMILES is read from it.
Legend:
L-Ferritin = L-Ferritin gene expression in hemin-treated astrocytes by qRT-PCR; assay type: cell-based, human; settings: SPH 160 μM, oligopeptide 10 μM, collagen control 160 μM, after 6 hr hemin; for L-Ferritin Fold Change (individual runs): GAPDH housekeeping, normalized to control wells
Method: (§1) Immortalized human astrocytes (P10251-IM) were obtained from Innoprot, Spain and prepared under conditions recommended by the supplier. At 90% confluency, the P10251-IM cells were rinsed with 8 ml of DPBS and 2 ml of the T/E Solution (prepared as per Innoprot procedure), then added into an […] and gently rocked so that the P10251-IM cells would be completely covered. The flask was subsequently incubated at 37° C. for 2 minutes. Then 5 ml of fetal bovine serum (FBS) and the T/E solution from the flask were added into a 50 ml conical centrifuge tube. The flask was incubated for an additional 2 minutes, and the P10251-IM cells dislodged from the surface by gentle tapping. The P10251-IM cells were then transferred to the 50 ml conical centrifuge tube with 5 ml of TNS solution. The tube was centrifuged at 1000 rpm for 5 minutes. Then the P10251-IM cells were resuspended in the culture medium, counted, and plated in a poly-L-lysine-coated culture plate at 1×10^4 cell density. Cells were tested after they were incubated for 21 days in vitro.
(§2) Confluent P10251-IM cell cultures were washed and then pre-treated with medium alone, or medium supplemented with SPH (160 μM) or an oligopeptide (10 μM) for 24 hr at 37° C. Commercial collagen peptide (Vital Protein) at 160 μM concentration and sterile water were used as negative controls. The P10251-IM cells were subsequently treated with 30 μM hemin in serum-free medium consisting of MEM with 10 mM glucose (MEM10) for 6 hrs.
(§3) L-Ferritin and H-Ferritin gene expression were then quantified. Briefly, after 6 hr incubation with hemin, the astrocytes were lysed, and RNA was extracted using the Qiagen lipid mini kit. The expression of both genes (L-ferritin and H-ferritin) involved in iron homeostasis was assessed by qRT-PCR. Fold changes were calculated using the ΔCt method, using GAPDH as the housekeeping gene. Fold changes were normalized to expression levels in control wells. Experiments were run in triplicate.
(§4) The primers used for amplification of cDNA were: […]

FTH1 = FTH1 gene expression in human skeletal muscle cells (HSkMC) by qRT-PCR; assay type: cell-based; settings: for FTH1 Fold Change at 0.625 μM / FTH1 Fold Change at 1.25 μM / FTH1 Fold Change at 2.5 μM / FTH1 Fold Change at 5 μM / FTH1 Fold Change at 10 μM: average of triplicate (SD ≤ 0.3); for FTH1 Fold Change, Average / FTH1 Fold Change (individual runs): SPH 100 μM or synthetic oligopeptide 10 μM, about 12 hours; for FTH1 Fold Change (individual runs): triplicate runs
Method: A cell line derived from human skeletal muscle was selected to assess the effect of SPH and oligopeptides on gene expression. HSkMC (PCS-950-010) obtained from ATCC (Manassas, VA) were propagated in Mesenchymal Stem Cell Basal Medium (ATCC) reduced serum medium supplemented with Primary Skeletal Cell Muscle Growth Kit (ATCC) that contains L-Glutamine (10 mM), Dexamethasone ([…]), rh epidermal growth factor (5 ng/ml), rh FGF-b (5 ng/ml), rh Insulin (25 μg/mL), and fetal bovine serum (4%), on 100 mm cell culture dishes. For this assay, the HSkMC cells were seeded in 24 well plates at a cell density of 1×10^4 cells/cm^2 and maintained at 37° C. in a humidified 5% CO2 atmosphere. […]
Total RNA was extracted using the UPzol reagent for the cell pellets, followed by a DNAse treatment (DNAse TURBO), using the manufacturer's protocols. Complementary DNA (cDNA) was synthesized with the High Capacity cDNA Reverse Transcription Kit (Applied Biosystems) using random hexamers. Gene expression levels were measured by qRT-PCR.
1 μl of cDNA corresponding to 50 ng of reverse transcribed RNA was amplified by Qpcr (QuantStudio™ 6 Flex Real-Time PCR System), using the TaqMan™ Universal PCR Master Mix (Catalog No. 4304437) and a TaqMan™ assay (Roche Molecular Systems, Inc., Pleasanton, CA).
FTH1 gene expression was estimated relative to expression of the housekeeping gene, beta-actin (ACTB), following the standard formula: […]
2-ΔCt. TaqMan™ probe IDs used were: (i) FTH1, Hs01694011_s1; and (ii) ACTB, Hs01060665_g1. All experiments were run in triplicate.

H-Ferritin [1] = assay: H-Ferritin gene expression in hemin-treated astrocytes by qRT-PCR; assay type: cell-based, human; settings: oligopeptide 10 μM; for H-Ferritin Fold Change, Average / H-Ferritin Fold Change (individual runs): SPH 160 μM, collagen control 160 μM, after 6 hr hemin; for H-Ferritin Fold Change (individual runs): GAPDH housekeeping, normalized to control wells
Method: as §1, §2, §3, §4

H-Ferritin [2] = assay: H-Ferritin protein levels in mouse bone marrow-derived macrophages (ELISA); assay type: cell-based; settings: murine macrophages; for H-Ferritin Protein Levels, Fe-Normal / H-Ferritin Protein Levels, DFO (−Fe) / H-Ferritin Protein Levels, Fe-NTA (+Fe): SPH 160 μM or oligopeptide 10 μM; for H-Ferritin Protein Levels, Fe-Normal: normal iron, average of triplicate; for H-Ferritin Protein Levels, DFO (−Fe): with DFO 100 μM 16 h; for H-Ferritin Protein Levels, Fe-NTA (+Fe): with Fe-NTA 8 h; for intracellular H-Ferritin protein levels: normal and iron-depleted conditions
Method: Cell Cultures. MBMMs (C57BL/6 genetic background) were obtained from CellBiologics.net and prepared under the conditions recommended by the supplier. Isolated MBMMs were seeded onto 10 cm diameter Petri dishes and grown in RPMI-GlutaMAX™ medium (Invitrogen) supplemented with 10% heat-inactivated FCS (Gibco), 10% L-cell-conditioned medium (source of colony-stimulating factor 1), 2 mM L-glutamine, 50 U/mL penicillin, and […] streptomycin. At 4 days after seeding, the adherent MBMMs were rinsed twice with Hanks balance salt solution (HBSS), and the medium was renewed for 7 days, at which point the MBMMs had completely differentiated into macrophages that were ready for downstream experimental applications.
Cell Treatments. SPH (average molecular weight of about 1100 Daltons) and oligopeptides were dissolved in sterile water to obtain […] stock solutions. The SPH and oligopeptides were further diluted in cell culture media to reach final concentrations of 160 μM SPH and 10 μM oligopeptide per Petri dish.
Murine macrophages were incubated with SPH or an oligopeptide in the presence or absence of an iron-nitrilotriacetate solution (Fe-NTA; FeCl3 (100 μM)-NTA (400 μM)) for 8 h at 37° C. to increase cellular iron concentration. Murine macrophages were also incubated with SPH or an oligopeptide in the presence or absence of desferrioxamine mesylate (DFO; 100 μM) for 16 h at 37° C. to decrease cellular iron concentration. Commercial collagen peptide (Vital Protein) at a 10 μM concentration and sterile water were used as negative controls.
Quantification of H-Ferritin. Macrophages were washed with cold saline and lysed with 400 μl of a solution containing 50 mM HEPES (Gibco), 1% IGEPAL C-630 (Sigma), and 1% proteases inhibitor cocktail P840 (Sigma). H-Ferritin concentrations in the lysates were determined by ELISA using polyclonal antibodies raised against mouse recombinant H-ferritin subunits and calibrated with the corresponding recombinant homopolymers. The specificity and the absence of cross-reactivity of the antibodies are documented. The results were expressed as (ng ferritin) per (mg total protein) in the cell lysate and shown as an average of triplicate readings in Table 8-1. Total protein content was measured using the BCA protein assay kit (Pierce).

SMILES | L-Ferritin Fold Change, Average (L-Ferritin) [fold] | L-Ferritin Fold Change (individual runs) (L-Ferritin) | FTH1 Fold Change at 0.625 μM (FTH1) [fold] | FTH1 Fold Change at 1.25 μM (FTH1) [fold] | FTH1 Fold Change at 2.5 μM (FTH1) [fold] | FTH1 Fold Change at 5 μM (FTH1) [fold] | FTH1 Fold Change at 10 μM (FTH1) [fold] | FTH1 Fold Change, Average (FTH1) [fold] | FTH1 Fold Change (individual runs) (FTH1) | H-Ferritin Fold Change, Average (H-Ferritin [1]) [fold] | H-Ferritin Fold Change (individual runs) (H-Ferritin [1]) | increases in H-Ferritin gene expression (H-Ferritin [1]) [fold] | H-Ferritin Protein Levels, Fe-Normal (H-Ferritin [2]) [ng/mg total protein] | H-Ferritin Protein Levels, DFO (−Fe) (H-Ferritin [2]) [ng/mg total protein] | H-Ferritin Protein Levels, Fe-NTA (+Fe) (H-Ferritin [2]) [ng/mg total protein] | intracellular H-Ferritin protein levels (H-Ferritin [2])
CC(C)C[C@H](NC(=O)[C@H](CCC(=O)O)NC(=O)CNC(=O)[C@H](CO)NC(=O)[C@H](CCC(=O)O)NC(=O)[C@H](CCC(=O)O)NC(=O)[C@@H](N)CCCNC(=N)N)C(=O)O [FT-008, REESGEL] (H-REESGEL-OH) | 1.6 | 1.8 fold and 1.6 fold and 1.5 fold | 1.1 | 1.0 | 2.1 | 2.7 | 3.8 | 3.6 | 3.9 fold and 3.3 fold and 3.7 fold | 4.2 | 4.1 fold (2×) and 4.4 fold | 4.0 | 158 | 122 | 200 | substantial increases
N=C(N)NCCC[C@H](NC(=O)[C@@H]1CCCN1)C(=O)N[C@@H](CCC(=O)O)C(=O)N[C@@H](CCC(=O)O)C(=O)N[C@@H](CO)C(=O)N[C@@H](CC(=O)O)C(=O)N[C@@H](CCCCN)C(=O)N1CCC[C@H]1C(=O)O [FT-007, PREESDKP] (H-PREESDKP-OH) | 1.1 | 1.1 fold and 1.2 fold and 1.0 fold | 1.1 | 1.0 | 1.1 | 1.9 | 2.8 | 2.6 | 2.5 fold and 2.6 fold (2×) | 3.3 | 3.5 fold and 3.2 fold and 3.3 fold | 3.3 | 142 | 111 | 197 | substantial increases
CSCC[C@H](NC(=O)[C@@H]1CCCN1C(=O)[C@H](CCCCN)NC(=O)[C@H](CC(=O)O)NC(=O)[C@H](CO)NC(=O)[C@H](CCC(=O)O)NC(=O)[C@H](CCC(=O)O)NC(=O)[C@@H](N)CCCNC(=N)N)C(=O)N[C@@H](Cc1ccc(O)cc1)C(=O)O [FT-006, REESDKPMY] (H-REESDKPMY-OH) | 1.3 | 1.3 fold | 1.3 | 2.2 | 3.5 | 4.2 | 4.9 | 4.7 | 4.5 fold and 4.7 fold and 4.9 fold | 3.0 | 2.9 fold (2×) and 3.1 fold | 3.0 | 174 | 105 | 257 | substantial increases

Reference: patent US20250101061A1, “UPREGULATION OF FERRITIN HEAVY CHAIN 1 EXPRESSION” (HBC Immunology Inc., priority 2022, published 2025)
